Measurements as given in patent US20150239889A1, “PYRAZOLOPYRIMIDINE COMPOUND” (MITSUBISHI TANABE PHARMA CORPORATION, priority 2012, published 2015).

Columns and labels:
human HIF-PHD2 = molecular target: T1, human HIF-PHD2 (Homo sapiens, UniProt Q9GZT9); test: HIF-PHD inhibition assay (fluorescence polarization), human HIF-PHD2; format: biochemical; details: 2-oxoglutaric acid 3.33 μmol/L
T1 construct: purchased CrystalGenomics Ltd
Outline: (§1)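 A 5′-fluoresceinamide-labelled substrate with aminocaproic acid linker is used. Enzyme activity is computed by subtracting pre-enzyme polarization from post-enzyme polarization, expressed in mP.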

Hep3B cells = test: EPO production assay (ELISA of culture supernatant); format: cell-based; details: Homo sapiens, 3 μmol/L test compound, 48 hours, relative to control (0.1% DMSO), read-out: EPO production stimulation rate with 3 μmol/L test compound
Procedure: The stimulatory effect of the compound onEPO production was determined as follows using Hep3B cells.
Cells were seeded on 96 well plates at 40000 cells/well, and the plate was incubated overnight in MEM medium containing 10% fetal bovine serum (FBS) at 37° C. under 5% CO2. The next day, the medium was replaced with MEM containing 0.5% FBS, followed by addition of test compound. The test compound was dissolved in dimethyl sulfoxide and added to the cell so that the final concentration of dimethyl sulfoxide was 0.1%. After incubation for additional 48 hours, the culture supernatant was collected, and EPO contained in the supernatant was determined using ELISA kit (EPO ELISA Kit 11-693-417-001, Roche Co.). The results were expressed as stimulation rate of EPO production (fold), which was calculated as the relative value of the EPO production with 3 μmol/L of the test compound compared to the EPO production without stimulation (control).
Stimulation rate of EPO production (fold)=(EPO production with addition of test compound)/(EPO production of control)

human HIF-PHD3 = molecular target: T2, human HIF-PHD3 (Homo sapiens, UniProt Q9H6Z9); test: HIF-PHD inhibition assay (fluorescence polarization), human HIF-PHD3; format: biochemical; details: 2-oxoglutaric acid 166 μmol/L
T2 construct: purchased CrystalGenomics Ltd
Outline: as §1

T2 sequence (Q9H6Z9 whole entry): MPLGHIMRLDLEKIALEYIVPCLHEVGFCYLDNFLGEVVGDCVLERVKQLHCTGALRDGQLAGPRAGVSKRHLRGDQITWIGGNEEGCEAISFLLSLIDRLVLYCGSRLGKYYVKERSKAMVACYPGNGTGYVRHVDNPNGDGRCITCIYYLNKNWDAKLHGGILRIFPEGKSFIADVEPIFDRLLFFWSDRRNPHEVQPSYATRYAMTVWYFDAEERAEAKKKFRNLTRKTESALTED
T1 sequence (Q9GZT9 2-426 limits assumed): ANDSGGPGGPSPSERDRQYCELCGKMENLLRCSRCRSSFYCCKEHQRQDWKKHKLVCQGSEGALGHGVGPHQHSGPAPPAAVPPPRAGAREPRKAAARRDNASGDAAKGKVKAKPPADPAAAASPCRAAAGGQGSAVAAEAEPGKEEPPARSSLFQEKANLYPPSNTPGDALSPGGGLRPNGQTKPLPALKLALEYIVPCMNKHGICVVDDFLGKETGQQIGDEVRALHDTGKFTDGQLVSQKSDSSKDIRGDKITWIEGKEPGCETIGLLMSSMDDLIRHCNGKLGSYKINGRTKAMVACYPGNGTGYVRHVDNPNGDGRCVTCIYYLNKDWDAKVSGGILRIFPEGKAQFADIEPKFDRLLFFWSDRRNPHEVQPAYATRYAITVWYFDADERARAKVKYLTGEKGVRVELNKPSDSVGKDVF

SMILES | IC50 (human HIF-PHD2) | fold induction at 3 µM (Hep3B cells) | IC50 (human HIF-PHD3)
O=C(O)c1cnn(-c2nc(O)c3c(cnn3Cc3ccc(F)c(Br)c3)n2)c1 [Example 14] | 31 nM | 1.4 | 280 nM
O=C(O)c1cnn(-c2nc(O)c3c(cnn3Cc3cc(F)cc(Br)c3)n2)c1 [Example 15] | 52 nM | 1.7 | 290 nM
C[C@H](c1ccccc1)n1ncc2nc(-n3cc(C(=O)O)cn3)nc(O)c21 [Example 16] | 66 nM | 3.1 | 820 nM
C[C@@H](c1ccccc1)n1ncc2nc(-n3cc(C(=O)O)cn3)nc(O)c21 [Example 17] | 65 nM | 3.2 | 480 nM
C[C@@H](c1ccc(F)cc1)n1ncc2nc(-n3cc(C(=O)O)cn3)nc(O)c21 [Example 18] | 35 nM | 5.6 | 450 nM
C[C@@H](c1ccc(C(F)(F)F)cc1)n1ncc2nc(-n3cc(C(=O)O)cn3)nc(O)c21 [Example 19] | 26 nM | 10 | 720 nM
C[C@H](c1ccc(Cl)cc1)n1ncc2nc(-n3cc(C(=O)O)cn3)nc(O)c21 [Example 20] | 65 nM | 5.5 | 1200 nM
C[C@@H](c1ccc(Cl)cc1)n1ncc2nc(-n3cc(C(=O)O)cn3)nc(O)c21 [Example 21] | 17 nM | 7.5 | 520 nM
CC[C@@H](c1ccccc1)n1ncc2nc(-n3cc(C(=O)O)cn3)nc(O)c21 [Example 24] | 44 nM | 2.8 | 990 nM
Cc1ccc(C(C(C)C)n2ncc3nc(-n4cc(C(=O)O)cn4)nc(O)c32)cc1 (stereo not drawn) [Example 25] | 70 nM | 2.9 | 2900 nM
O=C(O)c1cnn(-c2nc(O)c3c(cnn3C(c3ccc(Cl)cc3)c3ccc(Cl)cc3)n2)c1 [Example 27] | 20 nM | 26 | 2600 nM
O=C(O)c1cnn(-c2nc(O)c3c(cnn3Cc3ccc4ccccc4c3)n2)c1 [Example 29] | 37 nM | 4.2 | 200 nM
C[C@H](c1ccc2ccccc2c1)n1ncc2nc(-n3cc(C(=O)O)cn3)nc(O)c21 [Example 30] | 72 nM | 5.5 | 460 nM
C[C@@H](c1ccc2ccccc2c1)n1ncc2nc(-n3cc(C(=O)O)cn3)nc(O)c21 [Example 31] | 13 nM | 4.7 | 270 nM
O=C(O)c1cnn(-c2nc(O)c3c(cnn3Cc3ccc4cc(F)ccc4c3)n2)c1 [Example 32] | 14 nM | 5.7 | 320 nM
O=C(O)c1cnn(-c2nc(O)c3c(cnn3Cc3ccc4ccccc4c3F)n2)c1 [Example 34] | 17 nM | 1.2 | 240 nM
Cc1c(Cn2ncc3nc(-n4cc(C(=O)O)cn4)nc(O)c32)ccc2ccccc12 [Example 35] | 18 nM | 5.7 | 250 nM
O=C(O)c1cnn(-c2nc(O)c3c(cnn3Cc3ccc4c(c3)CCCC4)n2)c1 [Example 36] | 15 nM | 1.4 | 170 nM
O=C(O)c1cnn(-c2nc(O)c3c(cnn3Cc3ccc(C4CCCCC4)cc3)n2)c1 [Example 37] | 26 nM | 8.3 | 120 nM
O=C(O)c1cnn(-c2nc(O)c3c(cnn3Cc3ccccc3-c3ccccc3)n2)c1 [Example 38] | 150 nM | 2.9 | 1800 nM
O=C(O)c1cnn(-c2nc(O)c3c(cnn3Cc3cccc(-c4ccccc4)c3)n2)c1 [Example 39] | 25 nM | 5 | 350 nM
O=C(O)c1cnn(-c2nc(O)c3c(cnn3Cc3cccc(-c4ccc(F)cc4)c3)n2)c1 [Example 40] | 11 nM | 5 | 140 nM
O=C(O)c1cnn(-c2nc(O)c3c(cnn3Cc3cccc(-c4ccc(C(F)(F)F)cc4)c3)n2)c1 [Example 41] | 22 nM | 9.5 | 340 nM
COc1ccc(-c2cccc(Cn3ncc4nc(-n5cc(C(=O)O)cn5)nc(O)c43)c2)cc1 [Example 42] | 14 nM | 9.1 | 1400 nM
O=C(O)c1cnn(-c2nc(O)c3c(cnn3Cc3cccc(-c4ccc(OC(F)(F)F)cc4)c3)n2)c1 [Example 43] | 15 nM | 6.5 | 200 nM

SMILES | IC50 (human HIF-PHD2) | fold induction at 3 µM (Hep3B cells) | IC50 (human HIF-PHD3)
O=C(O)c1cnn(-c2nc(O)c3c(cnn3Cc3cccc(-c4cccc(F)c4)c3)n2)c1 [Example 44] | 49 nM | 4.9 | 390 nM
O=C(O)c1cnn(-c2nc(O)c3c(cnn3Cc3cccc(-c4cccc(C(F)(F)F)c4)c3)n2)c1 [Example 45] | 50 nM | 8.9 | 170 nM
O=C(O)c1cnn(-c2nc(O)c3c(cnn3Cc3cccc(-c4ccccc4F)c3)n2)c1 [Example 46] | 68 nM | 3.7 | 85 nM
O=C(O)c1cnn(-c2nc(O)c3c(cnn3Cc3cccc(-c4ccccc4C(F)(F)F)c3)n2)c1 [Example 47] | 77 nM | 4.4 | 650 nM
Cc1cccc(C)c1-c1cccc(Cn2ncc3nc(-n4cc(C(=O)O)cn4)nc(O)c32)c1 [Example 48] | 70 nM | 6.6 | 340 nM
O=C(O)c1cnn(-c2nc(O)c3c(cnn3Cc3cc(-c4ccccc4)ccc3F)n2)c1 [Example 49] | 30 nM | 7.6 | 200 nM
O=C(O)c1cnn(-c2nc(O)c3c(cnn3Cc3cc(F)cc(-c4ccccc4)c3)n2)c1 [Example 50] | 51 nM | 6.3 | 320 nM
O=C(O)c1cnn(-c2nc(O)c3c(cnn3Cc3ccc(F)c(-c4ccccc4)c3)n2)c1 [Example 51] | 34 nM | 3.9 | 190 nM
O=C(O)c1cnn(-c2nc(O)c3c(cnn3Cc3cccc(-c4ccccc4)c3F)n2)c1 [Example 52] | 22 nM | 3.3 | 250 nM
Cc1ccc(Cn2ncc3nc(-n4cc(C(=O)O)cn4)nc(O)c32)cc1-c1ccccc1 [Example 53] | 25 nM | 3.3 | 410 nM
C[C@@H](c1cccc(-c2ccccc2)c1)n1ncc2nc(-n3cc(C(=O)O)cn3)nc(O)c21 [Example 54] | 18 nM | 5.6 | 250 nM
O=C(O)c1cnn(-c2nc(O)c3c(cnn3Cc3ccc(-c4ccccc4F)cc3)n2)c1 [Example 56] | 16 nM | 19 | 260 nM
Cc1ccccc1-c1ccc(Cn2ncc3nc(-n4cc(C(=O)O)cn4)nc(O)c32)cc1 [Example 57] | 15 nM | 9.1 | 130 nM
CCc1ccccc1-c1ccc(Cn2ncc3nc(-n4cc(C(=O)O)cn4)nc(O)c32)cc1 [Example 58] | 21 nM | 9.3 | 65 nM
O=C(O)c1cnn(-c2nc(O)c3c(cnn3Cc3ccc(-c4ccccc4C(F)(F)F)cc3)n2)c1 [Example 61] | 12 nM | 6 | 180 nM
O=C(O)c1cnn(-c2nc(O)c3c(cnn3Cc3ccc(-c4ccccc4Cl)cc3)n2)c1 [Example 62] | 17 nM | 12 | 140 nM
O=C(O)c1cnn(-c2nc(O)c3c(cnn3Cc3ccc(-c4cccc(F)c4)cc3)n2)c1 [Example 63] | 14 nM | 18 | 110 nM
Cc1cccc(-c2ccc(Cn3ncc4nc(-n5cc(C(=O)O)cn5)nc(O)c43)cc2)c1 [Example 64] | 18 nM | 23 | 66 nM
O=C(O)c1cnn(-c2nc(O)c3c(cnn3Cc3ccc(-c4cccc(C(F)(F)F)c4)cc3)n2)c1 [Example 65] | 11 nM | 20 | 180 nM
O=C(O)c1cnn(-c2nc(O)c3c(cnn3Cc3ccc(-c4ccc(F)cc4)cc3)n2)c1 [Example 66] | 17 nM | 33 | 110 nM
O=C(O)c1cnn(-c2nc(O)c3c(cnn3Cc3ccc(-c4ccc(C(F)(F)F)cc4)cc3)n2)c1 [Example 67] | 10 nM | 19 | 190 nM
Cc1cccc(C)c1-c1ccc(Cn2ncc3nc(-n4cc(C(=O)O)cn4)nc(O)c32)cc1 [Example 68] | 23 nM | 9.5 | 160 nM
COc1cccc(Cl)c1-c1ccc(Cn2ncc3nc(-n4cc(C(=O)O)cn4)nc(O)c32)cc1 [Example 69] | 13 nM | 7.8 | 110 nM
Cc1ccc(-c2ccc(Cn3ncc4nc(-n5cc(C(=O)O)cn5)nc(O)c43)cc2)c(C)c1 [Example 70] | 11 nM | 24 | 110 nM
